Patent US10189841B2, “Purinones as ubiquitin-specific protease 1 inhibitors” (Forma Therapeutics, Inc., priority 2015, dated 2019)
pIC50: −log10 of the molar value.

These compounds were tested against USP1 (construct USP1 (I-785, GG670, 671AA)/UAF1 (I-677)-Flag) (Homo sapiens (Human), UniProt O94782, G670A/G671A) (assay: Ubiquitin-Rhodamine 110 assay for USP1 activity). Details: USP1/UAF1 25 pM, Ub-Rh110 25 nM, 30 min preincubation.
Type: biochemical
Procedure, shortened: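 Ub-Rh110 (25 nM, ≪Km) cleavage read at ex 485/em 535 in Tris pH 8.0, CaCl2, GSH, Prionex, Triton X-100. The screen used 10 µM compound, 100 pM USP1/UAF1 and 45 min at RT.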

Chain of USP1 (construct USP1 (I-785, GG670, 671AA)/UAF1 (I-677)-Flag) (O94782 whole entry G670A/G671A): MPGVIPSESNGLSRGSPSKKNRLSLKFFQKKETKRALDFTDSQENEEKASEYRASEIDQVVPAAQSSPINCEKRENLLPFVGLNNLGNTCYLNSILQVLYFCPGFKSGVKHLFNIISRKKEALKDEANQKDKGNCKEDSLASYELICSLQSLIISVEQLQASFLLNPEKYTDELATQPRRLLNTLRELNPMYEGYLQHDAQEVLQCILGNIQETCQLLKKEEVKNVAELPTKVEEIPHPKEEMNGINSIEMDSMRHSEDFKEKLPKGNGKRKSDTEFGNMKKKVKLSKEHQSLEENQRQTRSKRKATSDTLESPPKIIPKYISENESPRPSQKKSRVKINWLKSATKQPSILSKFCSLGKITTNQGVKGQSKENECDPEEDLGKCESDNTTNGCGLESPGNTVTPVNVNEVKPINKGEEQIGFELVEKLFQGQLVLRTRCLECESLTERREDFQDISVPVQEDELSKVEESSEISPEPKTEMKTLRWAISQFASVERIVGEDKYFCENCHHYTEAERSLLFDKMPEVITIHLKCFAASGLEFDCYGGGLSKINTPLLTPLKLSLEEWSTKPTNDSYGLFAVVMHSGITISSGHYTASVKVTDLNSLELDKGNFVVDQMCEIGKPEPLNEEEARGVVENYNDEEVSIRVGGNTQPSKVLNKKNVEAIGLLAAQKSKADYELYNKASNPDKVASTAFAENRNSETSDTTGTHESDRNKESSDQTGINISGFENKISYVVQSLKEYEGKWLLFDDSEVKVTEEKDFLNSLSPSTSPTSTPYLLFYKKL
Chain of USP1 (construct USP1 (I-785, GG670, 671AA)/UAF1 (I-677)-Flag) (Q8TAF3 whole entry partner): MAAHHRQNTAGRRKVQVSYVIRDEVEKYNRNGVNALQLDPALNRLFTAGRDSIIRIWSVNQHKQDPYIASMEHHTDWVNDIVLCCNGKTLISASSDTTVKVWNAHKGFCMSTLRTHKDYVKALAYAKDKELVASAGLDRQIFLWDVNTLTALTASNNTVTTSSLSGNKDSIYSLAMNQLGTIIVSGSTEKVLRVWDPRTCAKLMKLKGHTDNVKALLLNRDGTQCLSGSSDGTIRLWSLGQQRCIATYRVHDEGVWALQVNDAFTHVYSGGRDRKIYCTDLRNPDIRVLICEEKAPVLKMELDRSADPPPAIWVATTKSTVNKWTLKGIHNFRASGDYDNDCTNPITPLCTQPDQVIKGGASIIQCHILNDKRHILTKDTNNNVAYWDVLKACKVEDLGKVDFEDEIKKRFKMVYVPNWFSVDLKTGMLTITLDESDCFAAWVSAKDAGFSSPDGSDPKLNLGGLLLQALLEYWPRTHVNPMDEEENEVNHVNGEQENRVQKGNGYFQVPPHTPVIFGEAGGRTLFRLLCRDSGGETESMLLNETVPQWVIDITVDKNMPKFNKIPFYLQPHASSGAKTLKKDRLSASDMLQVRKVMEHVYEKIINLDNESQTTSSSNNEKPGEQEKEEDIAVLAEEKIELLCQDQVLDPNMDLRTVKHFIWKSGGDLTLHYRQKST

Question: How did the pIC50 turn out when CC(C)c1ccccc1-c1ncc2[nH]c(=O)n(Cc3ccc(-c4nc(C(F)(F)F)cn4C4COC4)cc3)c2n1 [Compound I-192, 2-(2-isopropylphenyl)-9-(4-(1-(oxetan-3-yl)-4-(trifluoromethyl)-1H-imidazol-2-yl)benzyl)-7,9-dihydro-8H-purin-8-one] was run?
Answer: > 7.30

Question: How did the pIC50 turn out when CC(C)c1c(F)cccc1-c1ncc2[nH]c(=O)n(Cc3ccc(-c4nc(C(F)(F)F)cn4C)cc3)c2n1 [Compound I-193, 2-(3-fluoro-2-isopropylphenyl)-9-(4-(1-methyl-4-(trifluoromethyl)-1H-imidazol-2-yl)benzyl)-7,9-dihydro-8H-purin-8-one] was run?
Answer: > 7.30

Question: Cc1cc(C(F)(F)F)nn1-c1ccc(Cn2c(=O)[nH]c3cnc(-c4ccccc4C(C)C)nc32)cc1 [Compound I-194, 2-(2-isopropylphenyl)-9-(4-(5-methyl-3-(trifluoromethyl)-1H-pyrazol-1-yl)benzyl)-7,9-dihydro-8H-purin-8-one] was tested. Which pIC50 did it give?
Answer: > 7.30

Question: Cc1cc(C(F)(F)F)n(-c2ccc(Cn3c(=O)[nH]c4cnc(-c5ccccc5C(C)C)nc43)cc2)n1 [Compound I-195, 2-(2-isopropylphenyl)-9-(4-(3-methyl-5-(trifluoromethyl)-1H-pyrazol-1-yl)benzyl)-7,9-dihydro-8H-purin-8-one] was tested. Which pIC50 did it give?
Answer: > 7.30

Question: How did the pIC50 turn out when CC(C)c1ccccc1-c1ncc2[nH]c(=O)n(Cc3ccc(-n4ccc(C#N)n4)cc3)c2n1 [Compound I-196, 1-(4-((2-(2-isopropylphenyl)-8-oxo-7,8-dihydro-9H-purin-9-yl)methyl)phenyl)-1H-pyrazole-3-carbonitrile] was run?
Answer: > 7.30

Question: With CC(C)c1ccccc1-c1ncc2[nH]c(=O)n(Cc3cccc(-n4cccn4)c3)c2n1 [Compound I-197, 9-(3-(1H-pyrazol-1-yl)benzyl)-2-(2-isopropylphenyl)-7,9-dihydro-8H-purin-8-one] as the compound, how does the pIC50 read?
Answer: 6.70 to 7.30

Question: With CC(C)c1ccccc1-c1ncc2[nH]c(=O)n(Cc3ccc(-c4nc(Cl)cn4C)cc3)c2n1 [Compound I-198, 9-(4-(4-chloro-1-methyl-1H-imidazol-2-yl)benzyl)-2-(2-isopropylphenyl)-7,9-dihydro-8H-purin-8-one] as the compound, how does the pIC50 read?
Answer: > 7.30

Question: With CC(C)c1ccccc1-c1ncc2[nH]c(=O)n(Cc3ccc(-n4nc(C#N)cc4C#N)cc3)c2n1 [Compound I-199, 1-(4-((2-(2-isopropylphenyl)-8-oxo-7,8-dihydro-9H-purin-9-yl)methyl)phenyl)-1H-pyrazole-3,5-dicarbonitrile] as the compound, how does the pIC50 read?
Answer: > 7.30

Question: How did the pIC50 turn out when Cc1nc(-c2ccc(Cn3c(=O)[nH]c4cnc(-c5ccccc5C(C)C)nc43)cc2)c(C)o1 [Compound I-200, 9-(4-(2,5-dimethyloxazol-4-yl)benzyl)-2-(2-isopropylphenyl)-7,9-dihydro-8H-purin-8-one] was run?
Answer: > 7.30

Question: How did the pIC50 turn out when CC(C)c1c(F)cccc1-c1ncc2[nH]c(=O)n(Cc3ccc(-c4nc(C(F)(F)F)cn4C4COC4)cc3)c2n1 [Compound I-201, 2-(3-fluoro-2-isopropylphenyl)-9-(4-(1-(oxetan-3-yl)-4-(trifluoromethyl)-1H-imidazol-2-yl)benzyl)-7,9-dihydro-8H-purin-8-one] was run?
Answer: > 7.30

Question: How did the pIC50 turn out when Cc1cn(C2COC2)c(-c2ccc(Cn3c(=O)[nH]c4cnc(-c5cccc(F)c5C(C)C)nc43)cc2)n1 [Compound I-202, 2-(3-fluoro-2-isopropylphenyl)-9-(4-(4-methyl-1-(oxetan-3-yl)-1H-imidazol-2-yl)benzyl)-7,9-dihydro-8H-purin-8-one] was run?
Answer: > 7.30

Question: Cc1cn(C)c(-c2ccc(Cn3c(=O)[nH]c4cnc(-c5ccccc5C(C)C)nc43)cn2)n1 [Compound I-203, 9-((6-(1,4-dimethyl-1H-imidazol-2-yl)pyridin-3-yl)methyl)-2-(2-isopropylphenyl)-7,9-dihydro-8H-purin-8-one] was tested. Which pIC50 did it give?
Answer: > 7.30

Question: COc1ccn(-c2ccc(Cn3c(=O)[nH]c4cnc(-c5ccccc5C(C)C)nc43)cc2)n1 [Compound I-204, 2-(2-isopropylphenyl)-9-(4-(3-methoxy-1H-pyrazol-1-yl)benzyl)-7,9-dihydro-8H-purin-8-one] was tested. Which pIC50 did it give?
Answer: > 7.30

Question: CC(C)c1ccccc1-c1ncc2[nH]c(=O)n(Cc3ccc(-n4c(=O)ccn4C)cc3)c2n1 [Compound I-205, 2-(2-isopropylphenyl)-9-(4-(2-methyl-5-oxo-2,5-dihydro-1H-pyrazol-1-yl)benzyl)-7,9-dihydro-8H-purin-8-one] was tested. Which pIC50 did it give?
Answer: 6.70 to 7.30

Question: With COc1ccnn1-c1ccc(Cn2c(=O)[nH]c3cnc(-c4ccccc4C(C)C)nc32)cc1 [Compound I-206, 2-(2-isopropylphenyl)-9-(4-(5-methoxy-1H-pyrazol-1-yl)benzyl)-7,9-dihydro-8H-purin-8-one] as the compound, how does the pIC50 read?
Answer: > 7.30

Question: Cc1cc(C#N)nn1-c1ccc(Cn2c(=O)[nH]c3cnc(-c4ccccc4C(C)C)nc32)cc1 [Compound I-207, 1-(4-((2-(2-isopropylphenyl)-8-oxo-7,8-dihydro-9H-purin-9-yl)methyl)phenyl)-5-methyl-1H-pyrazole-3-carbonitrile] was tested. Which pIC50 did it give?
Answer: > 7.30

Question: Cc1cc(C#N)n(-c2ccc(Cn3c(=O)[nH]c4cnc(-c5ccccc5C(C)C)nc43)cc2)n1 [Compound I-208, 1-(4-((2-(2-isopropylphenyl)-8-oxo-7,8-dihydro-9H-purin-9-yl)methyl)phenyl)-3-methyl-1H-pyrazole-5-carbonitrile] was tested. Which pIC50 did it give?
Answer: > 7.30

Question: CC(C)c1ccccc1-c1ncc2[nH]c(=O)n(Cc3ccc(-c4nc(C(F)(F)F)nn4C)cc3)c2n1 [Compound I-209, 2-(2-isopropylphenyl)-9-(4-(1-methyl-3-(trifluoromethyl)-1H-1,2,4-triazol-5-yl)benzyl)-7,9-dihydro-8H-purin-8-one] was tested. Which pIC50 did it give?
Answer: > 7.30

Question: With Cc1cc(Cl)nn1-c1ccc(Cn2c(=O)[nH]c3cnc(-c4ccccc4C(C)C)nc32)cc1 [Compound I-210, 9-(4-(3-chloro-5-methyl-1H-pyrazol-1-yl)benzyl)-2-(2-isopropylphenyl)-7,9-dihydro-8H-purin-8-one] as the compound, how does the pIC50 read?
Answer: > 7.30

Question: How did the pIC50 turn out when Cc1cc(Cl)n(-c2ccc(Cn3c(=O)[nH]c4cnc(-c5ccccc5C(C)C)nc43)cc2)n1 [Compound I-211, 9-(4-(5-chloro-3-methyl-1H-pyrazol-1-yl)benzyl)-2-(2-isopropylphenyl)-7,9-dihydro-8H-purin-8-one] was run?
Answer: > 7.30

Question: Cc1cc(C)n([C@H]2CC[C@@H](Cn3c(=O)[nH]c4cnc(-c5ccccc5C(C)C)nc43)CC2)n1 [Compound I-212, 9-(((1s,4s)-4-(3,5-dimethyl-1H-pyrazol-1-yl)cyclohexyl)methyl)-2-(2-isopropylphenyl)-7,9-dihydro-8H-purin-8-one] was tested. Which pIC50 did it give?
Answer: > 7.30

Question: How did the pIC50 turn out when Cc1cc(C)n([C@H]2CC[C@H](Cn3c(=O)[nH]c4cnc(-c5ccccc5C(C)C)nc43)CC2)n1 [Compound I-213, 9-(((1r,4r)-4-(3,5-dimethyl-1H-pyrazol-1-yl)cyclohexyl)methyl)-2-(2-isopropylphenyl)-7,9-dihydro-8H-purin-8-one] was run?
Answer: 5.70 to 6.70

Question: How did the pIC50 turn out when CC(C)c1ccccc1-c1ncc2[nH]c(=O)n([C@H](C)c3ccc(-c4nc(C(F)(F)F)cn4C)cc3)c2n1 [Compound I-214, (R)-2-(2-isopropylphenyl)-9-(1-(4-(1-methyl-4-(trifluoromethyl)-1H-imidazol-2-yl)phenyl)ethyl)-7,9-dihydro-8H-purin-8-one] was run?
Answer: > 7.30

Question: CC(C)c1ccccc1-c1ncc2[nH]c(=O)n([C@@H](C)c3ccc(-c4nc(C(F)(F)F)cn4C)cc3)c2n1 [Compound I-215, (S)-2-(2-isopropylphenyl)-9-(1-(4-(1-methyl-4-(trifluoromethyl)-1H-imidazol-2-yl)phenyl)ethyl)-7,9-dihydro-8H-purin-8-one] was tested. Which pIC50 did it give?
Answer: > 7.30

Question: With CC(C)c1ccccc1-c1ncc2[nH]c(=O)n(Cc3ccc(C4OCC4(C)C)cc3)c2n1 (centres unmarked) [Compound I-216, 9-(4-(3,3-dimethyloxetan-2-yl)benzyl)-2-(2-isopropylphenyl)-7,9-dihydro-8H-purin-8-one] as the compound, how does the pIC50 read?
Answer: 6.70 to 7.30

Question: With CC(=O)Nc1cccc(Cn2c(=O)[nH]c3cnc(-c4ccccc4C(C)C)nc32)c1 [Compound I-217, N-(3-((2-(2-isopropylphenyl)-8-oxo-7,8-dihydro-9H-purin-9-yl)methyl)phenyl)acetamide] as the compound, how does the pIC50 read?
Answer: 5.70 to 6.70

Question: CC(=O)Nc1ccc(Cn2c(=O)[nH]c3cnc(-c4ccccc4C(C)C)nc32)cc1 [Compound I-218, N-(4-((2-(2-isopropylphenyl)-8-oxo-7,8-dihydro-9H-purin-9-yl)methyl)phenyl)acetamide] was tested. Which pIC50 did it give?
Answer: 5.70 to 6.70

Question: CC(C)c1ccccc1-c1ncc2[nH]c(=O)n(Cc3ccc(-c4ncc(C(F)(F)F)n4C)cc3)c2n1 [Compound I-219, 2-(2-isopropylphenyl)-9-(4-(1-methyl-5-(trifluoromethyl)-1H-imidazol-2-yl)benzyl)-7,9-dihydro-8H-purin-8-one] was tested. Which pIC50 did it give?
Answer: > 7.30

Question: How did the pIC50 turn out when CC(C)c1ccccc1-c1ncc2[nH]c(=O)n(CC3(F)CCN(C(=O)OC(C)(C)C)CC3)c2n1 [Compound I-220, tert-butyl 4-fluoro-4-((2-(2-isopropylphenyl)-8-oxo-7,8-dihydro-9H-purin-9-yl)methyl)piperidine-1-carboxylate] was run?
Answer: 6.70 to 7.30

Question: How did the pIC50 turn out when CC(C)c1ccccc1-c1ncc2[nH]c(=O)n(Cc3ccc(-n4cc(C5CCNCC5)cn4)cc3)c2n1 [Compound I-221, 2-(2-isopropylphenyl)-9-(4-(4-(piperidin-4-yl)-1H-pyrazol-1-yl)benzyl)-7,9-dihydro-8H-purin-8-one] was run?
Answer: 5.70 to 6.70

Question: CC(C)c1ccccc1-c1ncc2[nH]c(=O)n(Cc3ccc(-n4ccc(C5CCNC5)n4)cc3)c2n1 (centres unmarked) [Compound I-222, 2-(2-isopropylphenyl)-9-(4-(3-(pyrrolidin-3-yl)-1H-pyrazol-1-yl)benzyl)-7,9-dihydro-8H-purin-8-one] was tested. Which pIC50 did it give?
Answer: 5.70 to 6.70

Question: CC(C)c1ccccc1-c1ncc2[nH]c(=O)n(Cc3ccc(-n4ccc(C5CCCNC5)n4)cc3)c2n1 (centres unmarked) [Compound I-223, 2-(2-isopropylphenyl)-9-(4-(3-(piperidin-3-yl)-1H-pyrazol-1-yl)benzyl)-7,9-dihydro-8H-purin-8-one] was tested. Which pIC50 did it give?
Answer: 6.70 to 7.30
